From ChEMBL document CHEMBL5252588, “Palladium-Catalyzed Synthesis, Acetylcholinesterase Inhibition, and Neuroprotective Activities of N-Aryl Galantamine Analogues” (J Nat Prod, 2023)
Active and inactive are the calls of the source. No cut-off for these calls is given here.

Columns and labels:
[1] = biological target: Cholinesterase (Equus caballus) (UniProt P81908); assay: Inhibition of equine serum BChE using butyrylthiocholine iodide as substrate at 50 to 100 uM preincubated for 20 mins followed by substrate addition and measured after 20 mins by Ellman's method; conditions: dose 50-100 µM, time 40.0 min
Cholinesterase (Equus caballus), sequence (P81908 whole entry): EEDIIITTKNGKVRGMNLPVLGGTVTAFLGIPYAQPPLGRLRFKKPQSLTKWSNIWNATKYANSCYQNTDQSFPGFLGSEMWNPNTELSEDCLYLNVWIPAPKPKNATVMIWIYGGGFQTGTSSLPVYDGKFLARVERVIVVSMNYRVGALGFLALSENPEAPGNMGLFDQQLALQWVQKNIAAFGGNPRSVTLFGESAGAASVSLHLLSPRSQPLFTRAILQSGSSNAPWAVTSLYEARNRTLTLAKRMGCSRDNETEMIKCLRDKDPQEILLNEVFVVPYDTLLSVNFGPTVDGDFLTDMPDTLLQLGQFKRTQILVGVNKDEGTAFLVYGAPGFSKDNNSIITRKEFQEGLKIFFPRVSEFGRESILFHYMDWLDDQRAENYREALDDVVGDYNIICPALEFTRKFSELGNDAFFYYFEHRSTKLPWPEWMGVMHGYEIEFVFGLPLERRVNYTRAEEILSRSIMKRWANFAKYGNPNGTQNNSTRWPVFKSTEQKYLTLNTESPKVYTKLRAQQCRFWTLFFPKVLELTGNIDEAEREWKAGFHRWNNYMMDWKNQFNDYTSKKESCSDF

SH-SY5Y [2] = assay: Cytotoxicity against human SH-SY5Y cells assessed as reduction in cell viability; type: toxicity, cell-based
[3] = biological target: Acetylcholinesterase (Electrophorus electricus) (UniProt O42275); assay: Inhibition of electric eel AChE using acetylthiocholine iodide as substrate at 50 to 100 uM preincubated with compounds for 20 mins followed by substrate addition and measured after 20 mins by Ellman's method relative to control; conditions: dose 50-100 µM, time 40.0 min
Acetylcholinesterase (Electrophorus electricus), sequence (O42275 24-633 limits assumed): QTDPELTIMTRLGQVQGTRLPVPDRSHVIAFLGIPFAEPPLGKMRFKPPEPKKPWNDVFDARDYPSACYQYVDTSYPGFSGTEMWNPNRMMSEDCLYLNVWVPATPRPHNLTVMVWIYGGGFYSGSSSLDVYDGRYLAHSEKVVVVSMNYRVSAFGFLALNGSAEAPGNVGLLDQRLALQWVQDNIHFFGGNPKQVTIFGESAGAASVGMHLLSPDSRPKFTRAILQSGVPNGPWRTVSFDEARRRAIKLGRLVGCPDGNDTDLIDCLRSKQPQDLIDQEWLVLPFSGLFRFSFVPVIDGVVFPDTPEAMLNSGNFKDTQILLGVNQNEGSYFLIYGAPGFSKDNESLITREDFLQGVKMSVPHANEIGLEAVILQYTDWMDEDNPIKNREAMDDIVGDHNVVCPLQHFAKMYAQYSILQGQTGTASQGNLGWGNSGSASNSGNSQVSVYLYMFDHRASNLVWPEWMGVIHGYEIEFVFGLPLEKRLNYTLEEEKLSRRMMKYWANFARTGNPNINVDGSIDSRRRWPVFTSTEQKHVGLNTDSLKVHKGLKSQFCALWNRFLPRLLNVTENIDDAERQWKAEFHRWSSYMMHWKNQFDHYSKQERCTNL

Acetylcholinesterase = Acetylcholinesterase (Electrophorus electricus, UniProt O42275); assay: Inhibition of electric eel AChE using acetylthiocholine iodide as substrate preincubated with compounds for 20 mins followed by substrate addition and measured after 20 mins by Ellman's method relative to control
Acetylcholinesterase, sequence (O42275 whole entry): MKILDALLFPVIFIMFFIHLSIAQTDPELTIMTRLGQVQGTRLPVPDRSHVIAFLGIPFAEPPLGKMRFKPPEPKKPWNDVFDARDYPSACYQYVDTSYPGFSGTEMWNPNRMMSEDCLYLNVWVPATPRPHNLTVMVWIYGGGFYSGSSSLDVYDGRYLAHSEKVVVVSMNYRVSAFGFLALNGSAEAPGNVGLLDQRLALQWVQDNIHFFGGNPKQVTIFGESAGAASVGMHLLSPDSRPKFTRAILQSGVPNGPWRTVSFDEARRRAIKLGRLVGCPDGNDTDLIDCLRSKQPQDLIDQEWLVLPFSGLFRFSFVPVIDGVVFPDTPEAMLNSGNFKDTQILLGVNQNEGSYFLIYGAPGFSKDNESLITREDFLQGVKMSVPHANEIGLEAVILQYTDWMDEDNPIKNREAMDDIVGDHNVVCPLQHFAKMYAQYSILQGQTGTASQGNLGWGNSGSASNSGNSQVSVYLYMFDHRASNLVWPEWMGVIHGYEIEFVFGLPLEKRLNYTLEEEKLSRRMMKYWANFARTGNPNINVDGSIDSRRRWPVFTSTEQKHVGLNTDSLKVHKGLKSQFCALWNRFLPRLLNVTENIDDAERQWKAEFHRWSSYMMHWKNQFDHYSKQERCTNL

SH-SY5Y [4] = assay: Neuroprotective activity against H2O2-induced injury in human SH-SY5Y cells assessed as decrease in cleaved caspase-3 at 50 uM preincubated with compound for 24 hrs followed by H2O2-addition and measured after 4 hrs by immunoblot analysis; type: functional, cell-based; conditions: time 28.0 hrs
SH-SY5Y [5] = assay: Neuroprotective activity against H2O2-induced injury in human SH-SY5Y cells assessed as […] in cell viability at 50 uM preincubated with compound for 24 hrs followed by H2O2-addition and measured after 4 hrs by MTT assay relative to control; type: functional; conditions: time 28 hrs
SH-SY5Y [6] = assay: Neuroprotective activity against H2O2-induced injury in human SH-SY5Y cells assessed as inhibition of H2O2-induced apoptosis at 50 uM preincubated with compound for 24 hrs followed by H2O2-addition and measured after 4 hrs by TUNEL staining based analysis; type: functional, cell-based; conditions: time 28.0 hrs
[7] = biological target: Acetylcholinesterase (Electrophorus electricus) (UniProt O42275); assay: Inhibition of electric eel AChE using acetylthiocholine iodide as substrate at 50 uM preincubated with compounds for 20 mins followed by substrate addition and measured after 20 mins by Ellman's method relative to control; conditions: time 40.0 min
SH-SY5Y [8] = assay: Neuroprotective activity against H2O2-induced injury in human SH-SY5Y cells assessed as increase in Bcl-2 protein expression at 50 uM preincubated with compound for 24 hrs followed by H2O2-addition and measured after 4 hrs by immunoblot analysis; type: functional, cell-based; conditions: time 28.0 hrs
SH-SY5Y [9] = assay: Neuroprotective activity against H2O2-induced injury in human SH-SY5Y cells assessed as decrease in caspase-3 protein expression at 50 uM preincubated with compound for 24 hrs followed by H2O2-addition and measured after 4 hrs by immunoblot analysis; type: functional, cell-based; conditions: time 28.0 hrs

| SMILES | inhibition [1] | inhibition [3] | Activity (SH-SY5Y [5]) | other results |
| --- | --- | --- | --- | --- |
| CCc1ccc(-c2ccc(N3CC[C@@]45C=C[C@H](O)C[C@@H]4Oc4c(OC)ccc(c45)C3)cc2)cc1 | inactive | < 50% |  | Activity (SH-SY5Y [2]): Toxic |
| COc1ccc2c3c1O[C@H]1C[C@@H](O)C=C[C@@]31CCN(c1ccc(C)cc1)C2 | inactive | < 50% |  | Activity (SH-SY5Y [2]): Toxic |
| COc1ccnc(N2CC[C@@]34C=C[C@H](O)C[C@@H]3Oc3c(OC)ccc(c34)C2)c1 | inactive |  | 70% | IC50 (Acetylcholinesterase): 0.19 µM; Activity (SH-SY5Y [4]): Active; Activity (SH-SY5Y [6]): Active; inhibition [7]: > 50%; Activity (SH-SY5Y [8]): Active; Activity (SH-SY5Y [9]): inactive |
| COc1ccc2c3c1O[C@H]1C[C@@H](O)C=C[C@@]31CCN(c1ccc3ncccc3c1)C2 | inactive | < 50% | 56% |  |
| COc1ccc2c3c1O[C@H]1C[C@@H](O)C=C[C@@]31CCN(c1cccc(C)n1)C2 | inactive |  | 55% | IC50 (Acetylcholinesterase): 17 µM; inhibition [7]: > 50% |
| COc1ccc2c3c1O[C@H]1C[C@@H](O)C=C[C@@]31CCN(c1cc(C(F)(F)F)cc(C(F)(F)F)c1)C2 | inactive | < 50% |  | Activity (SH-SY5Y [2]): Toxic |
| COc1cccnc1N1CC[C@@]23C=C[C@H](O)C[C@@H]2Oc2c(OC)ccc(c23)C1 | inactive |  | 40% | IC50 (Acetylcholinesterase): 27 µM; inhibition [7]: > 50% |
| COc1ccc2c3c1O[C@H]1C[C@@H](O)C=C[C@@]31CCN(c1ccc(C(F)(F)F)nc1)C2 | inactive |  | 63% |  |
| COc1ccc2c3c1O[C@H]1C[C@@H](O)C=C[C@@]31CCN(c1ccc(C(C)(C)C)cc1)C2 | inactive | < 50% |  | Activity (SH-SY5Y [2]): Toxic |
| COc1ccc(N2CC[C@@]34C=C[C@H](O)C[C@@H]3Oc3c(OC)ccc(c34)C2)cc1 | inactive | < 50% | 37% |  |
| CCCCc1ccc(N2CC[C@@]34C=C[C@H](O)C[C@@H]3Oc3c(OC)ccc(c34)C2)cc1 | inactive | < 50% |  | Activity (SH-SY5Y [2]): Toxic |
| COc1ccc2c3c1O[C@H]1C[C@@H](O)C=C[C@@]31CCN(c1ccc(F)cc1)C2 | inactive | < 50% | 39% |  |
| COc1ccc2c3c1O[C@H]1C[C@@H](O)C=C[C@@]31CCN(c1ncccc1C)C2 | inactive |  | 37% | IC50 (Acetylcholinesterase): 1.7 µM; inhibition [7]: > 50% |
| COc1ccc2c3c1O[C@H]1C[C@@H](O)C=C[C@@]31CCN(c1cccc(C(F)(F)F)c1)C2 | inactive | < 50% | 53% |  |
| COc1ccc2c3c1O[C@H]1C[C@@H](O)C=C[C@@]31CCN(c1ccccn1)C2 | inactive |  | 59% | IC50 (Acetylcholinesterase): 3.6 µM; inhibition [7]: > 50% |
| COc1ccc2c3c1O[C@H]1C[C@@H](O)C=C[C@@]31CCN(c1ccc3c(c1)OCO3)C2 | inactive | < 50% | 39% |  |
| COc1ccc2c3c1O[C@H]1C[C@@H](O)C=C[C@@]31CCN(c1ncccc1F)C2 | inactive |  |  | Activity (SH-SY5Y [2]): Toxic |
| COc1cccc(N2CC[C@@]34C=C[C@H](O)C[C@@H]3Oc3c(OC)ccc(c34)C2)c1 | inactive | < 50% | 40% |  |
| COc1cccc(N2CC[C@@]34C=C[C@H](O)C[C@@H]3Oc3c(OC)ccc(c34)C2)n1 | inactive |  | 66% |  |
| COc1ccc2c3c1O[C@H]1C[C@@H](O)C=C[C@@]31CCN(c1ccc(OC(C)C)nc1)C2 | inactive |  | 42% |  |
| COc1ccc2c3c1O[C@H]1C[C@@H](O)C=C[C@@]31CCN(c1ncccn1)C2 | inactive |  | 60% |  |
| COc1ccc2c3c1O[C@H]1C[C@@H](O)C=C[C@@]31CCN(c1ccc(-c3ccccn3)cc1)C2 | inactive | < 50% | 38% | Activity (SH-SY5Y [2]): Toxic |
| CCOc1ccc(N2CC[C@@]34C=C[C@H](O)C[C@@H]3Oc3c(OC)ccc(c34)C2)nc1 | inactive |  | 41% |  |
| COc1ccc2c3c1O[C@H]1C[C@@H](O)C=C[C@@]31CCN(c1cc(C)ccn1)C2 | inactive |  | 41% |  |
| COc1ccc2c3c1O[C@H]1C[C@@H](O)C=C[C@@]31CCN(C)C2 [GALANTAMINE] |  |  | 44% |  |
